Results: patent US20250019373A1, “ARYL OR HETEROARYL DERIVATIVE, AND PHARMACEUTICAL COMPOSITION COMPRISING SAME AS ACTIVE INGREDIENT FOR PREVENTION OR TREATMENT OF KINASE-RELATED DISEASES” (VORONOI INC., priority 2021, published 2025)
pEC50: −log10 of the molar value.

The molecules below were run on HT-29 cells (assay: Cell necrosis inhibitory activity under necroptosis-inducing conditions (TNF-α, Z-VAD-FMK, LCL161) in HT-29 cells, Cell Titer-Glo). Conditions: Homo sapiens, 100 ng/mL TNF-α + 25 μM Z-VAD-FMK + Smac mimetic LCL161, 24 hours, cell viability.
Format: cell-based
Protocol: To evaluate the cell necrosis inhibitory activity of the compound according to the present invention, an experiment was conducted as follows.
To evaluate the efficacy of inhibiting cell necrosis under TNF-α-mediated cell death-inducing conditions, a HT-29 cell line (Korean Cell Line Bank Accession No. #30038) was cultured in RPMI-1640 (HyClone #SH3027.01) medium containing 10% fetal bovine serum (FBS) and 1% penicillin/streptomycin to analyze cell viability. More specifically, for testing, the cell line was seeded in a 96-well flat bottom plate (Corning #3903) at a concentration of 10,000 cells/well and incubated at 37° C. under a 5% CO2 condition for 24 hours. Each well was treated with 100 ng/mL TNF-α, 25 μM pan-caspase inhibitor (Z-VAD-FMK, Selleckchem #S8102), and 10 µM Smac mimetic LCL161 (Selleckchem #S7009) and allowed to react for 10 minutes. The compounds of Examples were treated at 11 concentrations (the highest concentration being 0.1 μM or 1 μM) with a 3-fold concentration gradient, and as a control, dimethyl sulfoxide (DMSO) was treated at a concentration of 0.05% (v/v), which is the same as those when the compounds were treated. The treated cells were incubated for 24 hours. To confirm the degree of cell viability, 100 μL of Cell Titer-Glo (Promega #G7573) was added to the medium of the cultured cells and cultured for additional 10 minutes, and then luminescence was measured using a microplate reader. Based on the […] of control cells that were not treated with the compound, the degree of cell necrosis inhibitory activity was calculated according to the treatment concentration of each compound. Here, the concentration at which the cell necrosis inhibitory activity was 50% was determined as an EC50 (nM) value and calculated using Prism (ver. 8.4.3 #GraphPad) software.

Row | SMILES | pEC50
1 | Cc1ccc(-c2ccc3nc(N)c(C(=O)[C@@H]4C[C@@H]4F)n3c2)cc1NC(=O)N1OCC[C@H]1c1ccccc1 [Example 135, (S)-N-(5-(2-amino-3-((1S,2S)-2-fluorocyclopropane-1-carbonyl)imidazo[1,2-a]pyridin-6-yl)-2-methylphenyl)-3-phenylisoxazolidine-2-carboxamide] | 9.70
2 | Cc1ccc(-c2ccn3nc(N)cc3c2)cc1NC(=O)N1OCC2(CC2)[C@H]1c1ccccc1 [Example 140, (R)-N-(5-(2-aminopyrazolo[1,5-a]pyridin-5-yl)-2-methylphenyl)-7-phenyl-5-oxa-6-azaspiro[2.4]heptane-6-carboxamide] | 8.77
3 | CNC(=O)c1n[nH]c2cc(-c3cnc(C)c(NC(=O)N4OCC[C@H]4c4ccccc4)c3)ccc12 [Example 21, (S)-N-(2-methyl-5-(3-(methylcarbamoyl)-1H-indazol-6-yl)pyridin-3-yl)-3-phenylisoxazolidine-2-carboxamide] | 9.40
4 | Cc1ccc(-c2ccc3nc(N)sc3n2)cc1NC(=O)N1OCC[C@H]1c1ccccc1 [Example 98, (S)-N-(5-(2-aminothiazolo[5,4-b]pyridin-5-yl)-2-methylphenyl)-3-phenylisoxazolidine-2-carboxamide] | 9.52
5 | Cc1ncc(-c2ccc3nc(N)nn3c2)cc1NC(=O)N1OCC[C@H]1c1cc(F)cc(C(F)(F)F)c1 [Example 43, (S)-N-(5-(2-amino-[1,2,4]triazolo[1,5-a]pyridin-6-yl)-2-methylpyridin-3-yl)-3-(3-fluoro-5-(trifluoromethyl)phenyl)isoxazolidine-2-carboxamide] | 8.14
6 | Nc1nc2cc(-c3ccc(F)c(NC(=O)N4OCC[C@H]4c4ccccc4)c3)ccn2n1 [Example 123, (S)-N-(5-(2-amino-[1,2,4]triazolo[1,5-a]pyridin-7-yl)-2-fluorophenyl)-3-phenylisoxazolidine-2-carboxamide] | 9.52
7 | Nc1nc2ccc(-c3ccc(Cl)c(NC(=O)N4OCC[C@H]4c4ccccc4)c3)cn2n1 [Example 97, (S)-N-(5-(2-amino-[1,2,4]triazolo[1,5-a]pyridin-6-yl)-2-chlorophenyl)-3-phenylisoxazolidine-2-carboxamide] | 8.96
8 | COc1ccc(-c2ccc3nnn(C(C)C)c3c2)cc1NC(=O)N1OCC[C@H]1c1ccccc1 [Example 15, (S)-N-(5-(1-isopropyl-1H-benzo[d][1,2,3]triazol-6-yl)-2-methoxyphenyl)-3-phenylisoxazolidine-2-carboxamide] | 7.62
9 | COc1ncc(-c2ccc3nc(NC(=O)C4CC4)cn3n2)cc1NC(=O)N1OCC[C@H]1c1ccccc1 [Example 4, (S)-N-(5-(2-(cyclopropanecarboxamido)imidazo[1,2-b]pyridazin-6-yl)-2-methoxypyridin-3-yl)-3-phenylisoxazolidine-2-carboxamide] | 9.70
10 | Cc1ccc(-c2cc3scnc3cn2)cc1NC(=O)N1OCC[C@H]1c1ccccc1 [Example 130, (S)-N-(2-methyl-5-(thiazolo[4,5-c]pyridin-6-yl)phenyl)-3-phenylisoxazolidine-2-carboxamide] | 8.85
11 | COc1ncc(-c2ccc3c(N)ncnn23)cc1NC(=O)N1OCC[C@H]1c1ccccc1 [Example 99, (S)-N-(5-(4-aminopyrrolo[2,1-f][1,2,4]triazin-7-yl)-2-methoxypyridin-3-yl)-3-phenylisoxazolidine-2-carboxamide] | 8.09
12 | COc1ccc(-c2ccc3nc(NC(C)=O)oc3c2)cc1NC(=O)N1OCC[C@H]1c1ccccc1 [Example 16, (S)-N-(5-(2-acetamidobenzo[d]oxazol-6-yl)-2-methoxyphenyl)-3-phenylisoxazolidine-2-carboxamide] | 8.31
13 | Cc1ccc(-c2ccc3nc(N)oc3c2)cc1NC(=O)N1OCC[C@H]1c1ccccc1 [Example 109, (S)-N-(5-(2-aminobenzo[d]oxazol-6-yl)-2-methylphenyl)-3-phenylisoxazolidine-2-carboxamide] | 9.00
14 | Cc1ccc(-c2ccc3nnc(C)n3n2)cc1NC(=O)N1OCC[C@H]1c1ccccc1 [Example 107, (S)-N-(2-methyl-5-(3-methyl-[1,2,4]triazolo[4,3-b]pyridazin-6-yl)phenyl)-3-phenylisoxazolidine-2-carboxamide] | 7.63
15 | Nc1nc2cc(-c3ccc(Cl)c(NC(=O)N4OCC[C@H]4c4ccccc4)c3)ccn2n1 [Example 124, (S)-N-(5-(2-amino-[1,2,4]triazolo[1,5-a]pyridin-7-yl)-2-chlorophenyl)-3-phenylisoxazolidine-2-carboxamide] | 9.70
16 | O=C(Nc1cn2nc(-c3cccc(NC(=O)N4OCC[C@H]4c4ccccc4)c3)ccc2n1)C1CC1 [Example 2, (S)-N-(3-(2-(cyclopropanecarboxamido)imidazo[1,2-b]pyridazin-6-yl)phenyl)-3-phenylisoxazolidine-2-carboxamide] | 9.70
17 | Cc1ncc(-c2ccn3nc(N)nc3c2)cc1NC(=O)N1OCC[C@H]1c1ccc(C#N)cc1 [Example 70, (S)-N-(5-(2-amino-[1,2,4]triazolo[1,5-a]pyridin-7-yl)-2-methylpyridin-3-yl)-3-(4-cyanophenyl)isoxazolidine-2-carboxamide] | 8.28
18 | Nc1nc2cc(-c3ccc(F)c(NC(=O)N4OCC[C@H]4c4ccccc4)c3F)ccn2n1 [Example 134, (S)-N-(3-(2-amino-[1,2,4]triazolo[1,5-a]pyridin-7-yl)-2,6-difluorophenyl)-3-phenylisoxazolidine-2-carboxamide] | 7.89
19 | COc1ncc(-c2ccn3nc(N)nc3c2)cc1NC(=O)N1OCC[C@H]1c1ccccc1 [Example 47, (S)-N-(5-(2-amino-[1,2,4]triazolo[1,5-a]pyridin-7-yl)-2-methoxypyridin-3-yl)-3-phenylisoxazolidine-2-carboxamide] | 9.30
20 | CNC(=O)c1n[nH]c2cc(-c3cc(NC(=O)N4OCC[C@H]4c4ccccc4)cnc3OC)ccc12 [Example 23, (S)-N-(6-methoxy-5-(3-(methylcarbamoyl)-1H-indazol-6-yl)pyridin-3-y1)-3-phenylisoxazolidine-2-carboxamide] | 8.09
21 | Cc1ccc(-c2ccc3nc(N)cn3n2)cc1NC(=O)N1OCC[C@H]1c1ccccc1 [Example 95, (S)-N-(5-(2-aminoimidazo[1,2-b]pyridazin-6-yl)-2-methylphenyl)-3-phenylisoxazolidine-2-carboxamide] | 8.12
22 | Cc1ccc(-c2ccc3ncc(C#CC(C)(C)O)n3c2)cc1NC(=O)N1OCC[C@H]1c1ccccc1 [Example 115, (S)-N-(5-(3-(3-hydroxy-3-methylbut-1-yn-1-yl)imidazo[1,2-a]pyridin-6-yl)-2-methylphenyl)-3-phenylisoxazolidine-2-carboxamide] | 8.77
23 | Nc1nc2ccc(-c3ccc(F)c(NC(=O)N4OCC[C@H]4c4ccccc4)c3F)cc2s1 [Example 132, (S)-N-(3-(2-aminobenzo[d]thiazol-6-yl)-2,6-difluorophenyl)-3-phenylisoxazolidine-2-carboxamide] | 8.09
24 | Cc1ccc(-c2ccc3nc(N)nn3c2)cc1NC(=O)N1OCC[C@H]1c1ccc(F)cc1 [Example 66, (S)-N-(5-(2-amino-[1,2,4]triazolo[1,5-a]pyridin-6-yl)-2-methylphenyl)-3-(4-fluorophenyl)isoxazolidine-2-carboxamide] | 9.40
25 | C#Cc1cnc2ccc(-c3ccc(C)c(NC(=O)N4OCC[C@H]4c4ccccc4)c3)nn12 [Example 125, (S)-N-(5-(3-ethynylimidazo[1,2-b]pyridazin-6-yl)-2-methylphenyl)-3-phenylisoxazolidine-2-carboxamide] | 8.85
26 | CNC(=O)c1n[nH]c2cc(-c3cnc(OC)c(NC(=O)N4OCC[C@H]4c4ccccc4)c3)ccc12 [Example 22, (S)-N-(2-methoxy-5-(3-(methylcarbamoyl)-1H-indazol-6-yl)pyridin-3-yl)-3-phenylisoxazolidine-2-carboxamide] | 9.52
27 | COc1ncc(-c2ccn3nc(N)nc3c2)cc1NC(=O)N1OCC[C@H]1c1cccc(F)c1 [Example 53, (S)-N-(5-(2-amino-[1,2,4]triazolo[1,5-a]pyridin-7-yl)-2-methoxypyridin-3-yl)-3-(3-fluorophenyl)isoxazolidine-2-carboxamide] | 9.30
28 | CNC(=O)c1n[nH]c2cc(-c3cc(NC(=O)N4OCC[C@H]4c4ccccc4)cnc3C)ccc12 [Example 18, (S)-N-(6-methyl-5-(3-(methylcarbamoyl)-1H-indazol-6-yl)pyridin-3-y1)-3-phenylisoxazolidine-2-carboxamide] | 9.52
29 | Cc1ccc(-c2ccc3nccn3n2)cc1NC(=O)N1OCC[C@H]1c1ccccc1 [Example 112, (S)-N-(5-(imidazo[1,2-b]pyridazin-6-yl)-2-methylphenyl)-3-phenylisoxazolidine-2-carboxamide] | 8.48
30 | COc1ncc(-c2ccc3nc(N)nn3c2)cc1NC(=O)N1OCC[C@H]1c1cc(F)cc(F)c1 [Example 57, (S)-N-(5-(2-amino-[1,2,4]triazolo[1,5-a]pyridin-6-yl)-2-methoxypyridin-3-yl)-3-(3,5-difluorophenyl)isoxazolidine-2-carboxamide] | 8.36
